One test concerns KG1a. Description: CellTiterblue viability, 72 hr, KG1a. Type of test: cell-based. To be noted: Homo sapiens, KG-1a, KG1a cells. The protocol:
(§1) A number of studies were performed to analyze the consequences of tyrosine kinase inhibition in cell lines. To do this, 1000 cells are seeded in 27 μl/well in 384-well microplates, which are then placed in a humidified CO2 incubator at 37° C. overnight. The next day, 3 μl/well of 10× concentrated drug is added and the plates are returned to the incubator for 72 hr. After 72 hr incubation, plates are removed and […] CellTiterblue (Promega) viability reagent is added. Plates are returned to the incubator for 3 hr, after which it is fluorescence measurements are read on the Victor X3 plate reader (Perkin Elmer). Data are analyzed using Excel (Microsoft), and GI50 values are determined using Prism (Graphpad).
Background: Resazurin is reduced to fluorescent resorufin, in cell work by metabolically active cells.

In a further test the target is T1, c-Src kinase (Homo sapiens, UniProt P12931).
T1 construct: purchased Millipore (KinaseProfiler Service)
T1 sequence (P12931 whole entry): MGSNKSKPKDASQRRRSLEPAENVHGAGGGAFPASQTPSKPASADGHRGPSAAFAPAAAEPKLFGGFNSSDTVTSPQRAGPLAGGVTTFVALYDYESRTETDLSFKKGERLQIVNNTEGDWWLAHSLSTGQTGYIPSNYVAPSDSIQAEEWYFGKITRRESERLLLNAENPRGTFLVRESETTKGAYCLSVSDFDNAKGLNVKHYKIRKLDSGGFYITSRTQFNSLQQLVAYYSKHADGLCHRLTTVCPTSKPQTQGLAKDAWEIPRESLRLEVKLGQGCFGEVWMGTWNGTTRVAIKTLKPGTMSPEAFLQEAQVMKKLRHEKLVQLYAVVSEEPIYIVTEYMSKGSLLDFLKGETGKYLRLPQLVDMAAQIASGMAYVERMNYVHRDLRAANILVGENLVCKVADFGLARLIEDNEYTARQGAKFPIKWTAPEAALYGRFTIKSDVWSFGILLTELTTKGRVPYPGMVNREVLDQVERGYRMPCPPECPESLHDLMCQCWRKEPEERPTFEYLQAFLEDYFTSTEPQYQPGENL
Description: KinaseProfiler kinase inhibition assay, c-Src. Type of test: biochemical. To be noted: 1 μM compound; read-out: % Inhibition @1 μM cSrc.

Another test has as its system RT112. Description: CellTiterblue viability, 72 hr, RT112. Type of test: cell-based. Particulars: Homo sapiens, RT-112, RT112 cells. As for the experimental part:
as §1

For a further test, the target named is T2, Abl kinase (Homo sapiens, UniProt P00519).
T2 construct: purchased Millipore (KinaseProfiler Service)
T2 sequence (P00519 whole entry): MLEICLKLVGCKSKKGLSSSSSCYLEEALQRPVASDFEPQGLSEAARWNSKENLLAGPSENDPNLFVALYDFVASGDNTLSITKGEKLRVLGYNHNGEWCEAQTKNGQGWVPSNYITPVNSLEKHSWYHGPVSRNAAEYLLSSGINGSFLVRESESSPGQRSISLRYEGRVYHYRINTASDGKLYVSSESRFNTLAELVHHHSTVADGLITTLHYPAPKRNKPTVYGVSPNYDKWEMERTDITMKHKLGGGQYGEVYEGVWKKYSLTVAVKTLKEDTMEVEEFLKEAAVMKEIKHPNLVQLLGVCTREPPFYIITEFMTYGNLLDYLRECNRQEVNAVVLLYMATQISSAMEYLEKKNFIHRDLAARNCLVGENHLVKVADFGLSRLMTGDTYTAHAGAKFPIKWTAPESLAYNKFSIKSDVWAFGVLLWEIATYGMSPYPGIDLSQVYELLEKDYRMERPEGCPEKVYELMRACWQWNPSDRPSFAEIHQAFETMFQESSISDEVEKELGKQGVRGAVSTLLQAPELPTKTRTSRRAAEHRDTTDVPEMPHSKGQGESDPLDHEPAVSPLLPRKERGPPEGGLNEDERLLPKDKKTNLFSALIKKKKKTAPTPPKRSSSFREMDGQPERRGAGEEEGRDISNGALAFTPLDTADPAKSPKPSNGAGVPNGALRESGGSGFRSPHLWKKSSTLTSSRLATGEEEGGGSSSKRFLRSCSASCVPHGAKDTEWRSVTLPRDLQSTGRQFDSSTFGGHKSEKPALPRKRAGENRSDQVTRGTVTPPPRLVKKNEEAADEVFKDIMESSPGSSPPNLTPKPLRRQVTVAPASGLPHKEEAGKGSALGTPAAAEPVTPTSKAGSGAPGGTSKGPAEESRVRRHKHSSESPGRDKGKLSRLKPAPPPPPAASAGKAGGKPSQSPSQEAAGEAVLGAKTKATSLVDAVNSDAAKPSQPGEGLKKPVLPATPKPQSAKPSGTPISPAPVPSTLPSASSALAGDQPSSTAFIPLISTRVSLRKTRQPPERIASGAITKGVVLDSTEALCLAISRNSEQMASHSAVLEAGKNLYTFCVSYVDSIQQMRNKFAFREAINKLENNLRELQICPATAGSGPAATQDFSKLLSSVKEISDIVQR
Description: KinaseProfiler kinase inhibition assay, Abl. Type of test: biochemical. To be noted: 1 μM compound.

The next test has as its target T3, KDR kinase (Homo sapiens, UniProt P35968).
T3 construct: purchased Millipore (KinaseProfiler Service)
The test can be described thus: KinaseProfiler kinase inhibition assay, KDR. Type of test: biochemical. To be noted: 1 μM compound.

The next test concerns the target T4, FGFR1 kinase (Homo sapiens, UniProt P11362).
T4 construct: purchased Millipore (KinaseProfiler Service)
The test can be described thus: KinaseProfiler kinase inhibition assay, FGFR1. Particulars: 1 μM compound. Type of test: biochemical.

The target of a further test is T5, phospho-FGFR2 (Homo sapiens, UniProt P21802).
T5 construct: endogenous in cells; host or cells: Kato III cells
The test can be described thus: phospho-FGFR ELISA on Kato III cells. Type of test: cell-based. Particulars: read-out: EC50 (nM) P-FGFR2, Kato III cells. The protocol:
For the phospho-FGFR, the following assay Protocol was used. 25,000 cells are seeded in 90 μl/well in 96-well microplates, which are then placed in a humidified CO2 incubator at 37° C. overnight. 96-well ELISA plates (Mesoscale Discovery) are coated with capture antibody (R&D Systems Duo-Set) at 4 μg/ml, 30 μl/well. The next day, 10 μl/well of 10× concentrated drug is added and the plates are returned to the incubator for […]. ELISA plates are washed using an automated plate washer (BioTek Instruments). After 30 min, cells are inverted and gently tapped to remove excess medium, and immediately placed on ice. 30 μl mPer cell lysis reagent (Thermo Scientific) with protease and phosphatase inhibitors is added/well. After 15 min on ice, lysates are mixed and 30 μl transferred to the ELISA plate. Plates are incubated for 2 hr, washed, and 30 μl/well detection antibody is added. After 1 hr, plates are washed and 30 μl “SulfoTag” (MesoScale Discovery) detection reagent is added. After 1 hr, plates are washed and 150 μl/well read solution is added. Electrochemiluminescence is determined on the Mesoscale Discovery Sector Imager 2000. Data are analyzed using Excel (Microsoft), and EC50 values are determined using Prism (Graphpad).

The target of a further test is T6, Ret kinase (Homo sapiens, UniProt P07949).
T6 construct: purchased Millipore (KinaseProfiler Service)
Description: KinaseProfiler kinase inhibition assay, Ret. Type of test: biochemical. To be noted: 1 μM compound.

Another test concerns Kato III. The test can be described thus: CellTiterblue viability, 72 hr, Kato III. Type of test: cell-based. To be noted: Homo sapiens, Kato III cells. As for the experimental part:
as §1

The target in another test is T7, Alk kinase (Homo sapiens, UniProt Q9UM73).
T7 construct: purchased Millipore (KinaseProfiler Service)
Description: KinaseProfiler kinase inhibition assay, Alk. To be noted: 1 μM compound. Type of test: biochemical.

The test system of another test is AN3_CA. Description: CellTiterblue viability, 72 hr, AN3_CA. It counts as cell-based. Particulars: Homo sapiens, AN3-CA, AN3_CA cells. The protocol: as §1
The next test deals with T8, Tie2 (Homo sapiens, UniProt Q02763).
T8 construct: purchased Millipore (KinaseProfiler Service)
T8 sequence (Q02763 23-1124): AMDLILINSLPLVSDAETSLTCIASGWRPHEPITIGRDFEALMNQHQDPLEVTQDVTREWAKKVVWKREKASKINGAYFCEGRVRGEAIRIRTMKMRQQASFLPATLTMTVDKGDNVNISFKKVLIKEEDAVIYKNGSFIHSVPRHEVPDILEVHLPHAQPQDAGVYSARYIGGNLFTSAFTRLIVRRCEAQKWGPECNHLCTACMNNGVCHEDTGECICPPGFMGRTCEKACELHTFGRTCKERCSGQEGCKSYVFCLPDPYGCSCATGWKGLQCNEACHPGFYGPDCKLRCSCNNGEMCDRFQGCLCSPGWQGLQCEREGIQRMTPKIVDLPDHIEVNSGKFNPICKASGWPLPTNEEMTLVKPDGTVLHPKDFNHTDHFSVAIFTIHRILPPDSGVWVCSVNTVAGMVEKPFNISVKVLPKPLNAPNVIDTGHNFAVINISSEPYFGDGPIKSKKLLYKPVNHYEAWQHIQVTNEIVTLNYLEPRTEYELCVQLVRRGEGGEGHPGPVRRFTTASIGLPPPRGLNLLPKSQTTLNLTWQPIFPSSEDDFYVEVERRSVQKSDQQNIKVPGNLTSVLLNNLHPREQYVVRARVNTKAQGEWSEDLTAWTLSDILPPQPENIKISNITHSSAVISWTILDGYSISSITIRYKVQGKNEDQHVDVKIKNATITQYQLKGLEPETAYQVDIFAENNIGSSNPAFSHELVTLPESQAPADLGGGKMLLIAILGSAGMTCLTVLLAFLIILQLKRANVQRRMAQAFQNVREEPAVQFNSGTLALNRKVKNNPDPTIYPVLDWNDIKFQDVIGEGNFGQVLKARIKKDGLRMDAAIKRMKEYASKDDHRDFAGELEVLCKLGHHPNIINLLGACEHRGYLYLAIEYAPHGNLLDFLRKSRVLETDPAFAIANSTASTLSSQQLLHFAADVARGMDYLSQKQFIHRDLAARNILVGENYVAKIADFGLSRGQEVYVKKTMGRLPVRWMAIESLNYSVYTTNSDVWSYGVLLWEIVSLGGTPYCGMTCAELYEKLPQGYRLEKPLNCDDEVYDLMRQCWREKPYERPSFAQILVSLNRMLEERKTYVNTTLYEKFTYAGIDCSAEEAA
The test can be described thus: KinaseProfiler kinase inhibition assay, Tie2. Particulars: 1 μM compound. Type of test: biochemical.

T3 sequence (P35968 20-1356): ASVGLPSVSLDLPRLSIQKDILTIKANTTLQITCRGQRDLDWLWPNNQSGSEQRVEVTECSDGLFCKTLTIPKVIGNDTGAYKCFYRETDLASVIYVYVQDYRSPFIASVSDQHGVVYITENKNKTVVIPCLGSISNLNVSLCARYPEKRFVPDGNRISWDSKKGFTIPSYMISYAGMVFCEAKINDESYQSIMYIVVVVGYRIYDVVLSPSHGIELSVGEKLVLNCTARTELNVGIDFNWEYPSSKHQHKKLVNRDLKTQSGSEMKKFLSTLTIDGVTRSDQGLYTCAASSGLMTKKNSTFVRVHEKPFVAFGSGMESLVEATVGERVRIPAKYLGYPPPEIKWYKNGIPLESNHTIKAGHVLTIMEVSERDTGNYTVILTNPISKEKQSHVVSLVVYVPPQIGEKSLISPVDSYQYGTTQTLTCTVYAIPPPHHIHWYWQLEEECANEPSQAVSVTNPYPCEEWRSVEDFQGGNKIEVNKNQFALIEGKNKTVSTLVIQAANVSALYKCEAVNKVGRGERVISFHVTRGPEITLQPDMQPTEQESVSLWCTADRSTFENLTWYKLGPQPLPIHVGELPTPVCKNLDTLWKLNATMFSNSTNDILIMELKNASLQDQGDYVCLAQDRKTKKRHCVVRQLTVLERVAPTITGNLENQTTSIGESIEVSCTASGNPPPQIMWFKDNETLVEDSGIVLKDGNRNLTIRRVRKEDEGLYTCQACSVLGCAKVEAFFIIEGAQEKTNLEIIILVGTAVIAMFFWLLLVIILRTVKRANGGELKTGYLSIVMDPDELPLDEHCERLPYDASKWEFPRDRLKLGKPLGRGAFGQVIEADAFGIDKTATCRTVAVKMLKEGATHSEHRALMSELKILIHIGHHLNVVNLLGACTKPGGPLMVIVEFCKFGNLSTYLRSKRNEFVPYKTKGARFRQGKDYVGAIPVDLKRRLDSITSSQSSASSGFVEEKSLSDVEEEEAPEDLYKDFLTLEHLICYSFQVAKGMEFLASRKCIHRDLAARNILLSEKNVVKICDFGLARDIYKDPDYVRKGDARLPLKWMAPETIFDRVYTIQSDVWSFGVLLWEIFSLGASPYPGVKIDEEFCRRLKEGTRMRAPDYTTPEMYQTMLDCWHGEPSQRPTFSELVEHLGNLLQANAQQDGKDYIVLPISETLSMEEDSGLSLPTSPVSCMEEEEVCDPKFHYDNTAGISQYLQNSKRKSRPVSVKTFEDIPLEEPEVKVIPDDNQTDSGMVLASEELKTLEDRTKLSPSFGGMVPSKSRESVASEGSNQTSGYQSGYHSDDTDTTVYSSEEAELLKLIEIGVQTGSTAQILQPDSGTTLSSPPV
T4 sequence (P11362 22-822): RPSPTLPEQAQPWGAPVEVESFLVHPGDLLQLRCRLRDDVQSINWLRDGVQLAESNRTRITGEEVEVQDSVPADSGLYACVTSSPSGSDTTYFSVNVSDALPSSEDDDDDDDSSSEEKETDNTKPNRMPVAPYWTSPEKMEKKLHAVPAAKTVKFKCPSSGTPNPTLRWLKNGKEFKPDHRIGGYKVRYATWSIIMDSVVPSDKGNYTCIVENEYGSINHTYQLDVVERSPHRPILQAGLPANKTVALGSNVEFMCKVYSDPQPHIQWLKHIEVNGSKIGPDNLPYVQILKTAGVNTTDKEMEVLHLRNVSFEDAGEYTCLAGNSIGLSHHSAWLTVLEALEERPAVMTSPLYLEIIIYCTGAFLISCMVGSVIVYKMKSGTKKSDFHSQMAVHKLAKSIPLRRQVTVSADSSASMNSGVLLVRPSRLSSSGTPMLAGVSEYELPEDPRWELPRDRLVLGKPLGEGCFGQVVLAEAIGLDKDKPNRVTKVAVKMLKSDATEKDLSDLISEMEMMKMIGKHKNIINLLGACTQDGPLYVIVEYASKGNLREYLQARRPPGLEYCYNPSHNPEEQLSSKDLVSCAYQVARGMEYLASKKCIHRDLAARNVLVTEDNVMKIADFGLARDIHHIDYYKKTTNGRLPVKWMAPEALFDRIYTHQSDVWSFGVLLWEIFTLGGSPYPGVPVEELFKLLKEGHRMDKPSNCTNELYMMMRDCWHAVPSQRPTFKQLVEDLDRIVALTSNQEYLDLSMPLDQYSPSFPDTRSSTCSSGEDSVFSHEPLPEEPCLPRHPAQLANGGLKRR

In the case of `Cc1cc2c(F)c(Oc3ncnc(Nc4ccc(N5CCN(C)CC5)cn4)c3Cl)ccc2[nH]1` [Compound 34, 5-chloro-6-((4-fluoro-2-methyl-1H-indol-5-yl)oxy)-N-(5-(4-methylpiperazin-1-yl)pyridin-2-yl)pyrimidin-4-amine], the GI50 (commonly the concentration that inhibits growth by half) in the test with KG1a is greater than 100 nM; in the test with RT112, greater than 100 nM; with Kato III it was 229 nM; in the test on AN3_CA it was greater than 500 nM. For the same compound, the inhibition (commonly the relative decrease from the control value, in per cent) at 1 µM at c-Src kinase is 9%; on Abl kinase, 19%; on KDR kinase, 96%; on FGFR1 kinase, 98%; on Ret kinase it was 25%; against Alk kinase it was 15%. Further, at Tie2, the inhibition at 1 µM came out at 18%. Further, at phospho-FGFR2, the EC50 (commonly the concentration giving half of the maximal effect) was greater than 100 nM.

For the compound `Cc1cc2c(F)c(Oc3cc(Nc4ccc(N5CCNCC5)cc4)ncn3)cc(F)c2[nH]1` [Compound 51], the GI50 with KG1a is greater than 100 nM; in the test with RT112, greater than 100 nM; with Kato III it was 169 nM; in the test on AN3_CA, 406 nM. Besides, the inhibition at 1 µM on c-Src kinase stood at 70%; on Abl kinase, 73%; against KDR kinase it was 97%; against FGFR1 kinase, 101%; against Ret kinase it was 74%; on Alk kinase, 54%. Besides, the inhibition at 1 µM at Tie2 is 82%. Moreover, the EC50 on phospho-FGFR2 was 38 nM.

Turning to `Cc1cc2c(F)c(Oc3cc(Nc4ccc(N5CCN(C)CC5)cc4)ncn3)ccc2[nH]1` [Example 2], the GI50 in the test on KG1a was greater than 100 nM; in the test with RT112, greater than 100 nM; in the test on Kato III it was 165 nM; with AN3_CA it was 490 nM. Also, the inhibition at 1 µM stood at 47% at c-Src kinase; 45% against Abl kinase; 97% against KDR kinase; 102% at FGFR1 kinase; 75% against Ret kinase; 3% on Alk kinase. Also, at Tie2, the inhibition at 1 µM came to 58%. The EC50 at phospho-FGFR2 was 88 nM.

Take `COc1ccc(-c2cc(Nc3cc(Oc4ccc5[nH]c(C)cc5c4F)ncn3)n[nH]2)cc1OC` [Example 5]: the GI50 in the test with KG1a was greater than 100 nM; in the test on RT112 it was greater than 100 nM; in the test with Kato III, greater than 500 nM; with AN3_CA, 211 nM. Moreover, the inhibition at 1 µM on c-Src kinase was 65%; on Abl kinase, 63%; on KDR kinase it was 97%; against FGFR1 kinase it was 93%; on Ret kinase, 77%; at Alk kinase, -10%. For the same compound, the inhibition at 1 µM on Tie2 came to 45%. On phospho-FGFR2, the EC50 was greater than 100 nM.

Consider `Cc1cc2c(F)c(Oc3cc(Nc4cc(-c5ccccn5)[nH]n4)ncn3)ccc2[nH]1` [Example 6], for which the GI50 with KG1a is greater than 100 nM; with RT112 it was greater than 100 nM; in the test on Kato III it was greater than 500 nM; in the test on AN3_CA, 573 nM. Besides, the inhibition at 1 µM was found to be 47% on c-Src kinase; 62% at Abl kinase; 97% against KDR kinase; 95% at FGFR1 kinase; 78% against Ret kinase; 6% against Alk kinase. Also, the inhibition at 1 µM at Tie2 came out at 59%. In addition, the EC50 on phospho-FGFR2 was greater than 100 nM.

As for `Cc1cc2c(F)c(Oc3cc(N4CCN(c5ccc(N)cc5F)CC4)ncn3)ccc2[nH]1` [Example 10], the concentration for 50% growth inhibition (GI50) in the test on KG1a was greater than 100 nM; in the test on RT112, greater than 100 nM; with Kato III, 142 nM; with AN3_CA, 33 nM. Moreover, the inhibition at 1 µM on c-Src kinase is 8%; against Abl kinase, 13%; at KDR kinase it was 20%; at FGFR1 kinase, -4%; against Ret kinase, -19%; on Alk kinase, 40%. In addition, at Tie2, the inhibition at 1 µM is -12%. Also, the EC50 at phospho-FGFR2 was greater than 100 nM.

In the case of `Cc1cc2c(F)c(Oc3cc(Nc4ccc(N5CCNCC5)cc4)ncn3)ccc2[nH]1` [Example 11], the GI50 is greater than 100 nM in the test with KG1a, greater than 100 nM with RT112, greater than 500 nM with Kato III and greater than 500 nM with AN3_CA. Besides, the inhibition at 1 µM turned out to be 59% at c-Src kinase; 60% against Abl kinase; 96% at KDR kinase; 99% at FGFR1 kinase; 67% at Ret kinase; 70% against Alk kinase. Also, the inhibition at 1 µM against Tie2 is 92%. The concentration giving a half-maximal response (EC50) at phospho-FGFR2 came out at 96 nM.

Consider `Cc1cc2c(F)c(Oc3cc(Nc4ccc(N5CCN(C)CC5)c(F)c4)ncn3)ccc2[nH]1` [Example 14], for which the GI50 is greater than 100 nM with KG1a, greater than 100 nM with RT112, greater than 500 nM with Kato III and 483 nM in the test on AN3_CA. For the same compound, the inhibition at 1 µM at c-Src kinase turned out to be 35%; against Abl kinase, 32%; on KDR kinase, 97%; against FGFR1 kinase, 97%; on Ret kinase it was 48%; at Alk kinase it was 53%. Further, the inhibition at 1 µM on Tie2 was found to be 31%. For the same compound, the EC50 on phospho-FGFR2 was greater than 100 nM.

Regarding `Cc1cc2c(F)c(Oc3cc(Nc4ccc(N5CCN(C)CC5)cn4)ncn3)ccc2[nH]1` [Example 15], the GI50 in the test on KG1a was greater than 100 nM; in the test with RT112, greater than 100 nM; with Kato III it was 290 nM; in the test on AN3_CA, 332 nM. In addition, the inhibition at 1 µM on c-Src kinase stood at 78%; on Abl kinase it was 84%; at KDR kinase, 97%; at FGFR1 kinase, 100%; against Ret kinase, 79%; against Alk kinase, 32%. Besides, the inhibition at 1 µM at Tie2 was found to be 82%. The concentration for a half-maximal effect (EC50) on phospho-FGFR2 came out at 36 nM.

Regarding `Cc1cc2c(F)c(Oc3cc(Nc4cc(C5CC5)[nH]n4)ncn3)ccc2[nH]1` [Example 16], the 50% growth inhibitory concentration (GI50) with KG1a is greater than 100 nM; in the test with RT112 it was greater than 100 nM; in the test on AN3_CA, greater than 500 nM. Further, the inhibition at 1 µM on c-Src kinase came to 54%; at Abl kinase it was 64%; on KDR kinase, 90%; against FGFR1 kinase it was 92%; at Ret kinase, 79%; against Alk kinase, 2%. The inhibition at 1 µM against Tie2 is 75%. Also, at phospho-FGFR2, the EC50 was greater than 100 nM.

As to `C/C=C/c1cc(Nc2cc(Oc3ccc4[nH]c(C)cc4c3F)ncn2)n[nH]1` [Example 17], the GI50 in the test on KG1a is greater than 100 nM; in the test with RT112, greater than 100 nM; in the test with AN3_CA, greater than 500 nM. Further, the inhibition at 1 µM on c-Src kinase is 21%; at Abl kinase, 42%; against KDR kinase it was 90%; against FGFR1 kinase, 95%; on Ret kinase, 73%; on Alk kinase, 2%. For the same compound, the inhibition at 1 µM on Tie2 worked out at 37%. Besides, the concentration giving a half-maximal response (EC50) at phospho-FGFR2 is greater than 100 nM.

Consider `Cc1cc2c(F)c(Oc3cc(Nc4cc(-c5ccco5)[nH]n4)ncn3)ccc2[nH]1` [Example 20], for which the results for the GI50 in the test with KG1a, in the test with RT112 and in the test on AN3_CA were greater than 100 nM, greater than 100 nM and greater than 500 nM, respectively. In addition, the inhibition at 1 µM was 24% at c-Src kinase; 36% against Abl kinase; 88% against KDR kinase; 92% against FGFR1 kinase; 78% at Ret kinase; 3% against Alk kinase. Also, the inhibition at 1 µM at Tie2 stood at 47%. Further, the EC50 on phospho-FGFR2 is greater than 100 nM.

Regarding `COc1cc(CCc2cc(Nc3cc(Oc4ccc5[nH]c(C)cc5c4F)ncn3)n[nH]2)cc(OC)c1` [Example 22], the GI50 with KG1a was greater than 100 nM; in the test on RT112 it was greater than 100 nM; in the test with Kato III, 229 nM; with AN3_CA it was greater than 500 nM. In addition, the inhibition at 1 µM is 9% on c-Src kinase; 19% against Abl kinase; 96% on KDR kinase; 98% against FGFR1 kinase; 25% at Ret kinase; 15% against Alk kinase. The inhibition at 1 µM against Tie2 was found to be 18%. Further, on phospho-FGFR2, the EC50 is greater than 100 nM.
